Values quoted from earlier work as cited in US6380174B1, “Slime-removing composition for paper manufacture and method of controlling slime using the same” (SK Corporation, priority 1999, dated 2002).

System: slime-causing microorganisms

N#CC(Br)(Br)C(N)=O [DBNPA, 2,2-dibromo-3-nitrilepropionamide]
amount required for early sterilization (after 3 hours): 50 ppm
amount necessary for sufficient sterilizing activity (after 24 hours): 5 ppm
